From PMC5590943, “Pharmacological characterisation of S 47445, a novel positive allosteric modulator of AMPA receptors” (PLoS ONE, 2017)
Several values for one entry are separate records, joined by “and”; a condition that tells them apart may be missing. Identical values can stand only once.

Legend:
Androgen (h) (AR) = test: Binding assay, [3H]methyltrienolone
K^+V channel = test: Binding assay, [125I]α-dendrotoxin
5-HT1B = 5-HT1B (Rattus norvegicus, UniProt P28564); test: Binding assay, [125I]CYP (+ 30 μM (-)propranolol); settings: probe [125I]CYP
EGFR kinase (h) = EGFR kinase (h) (Homo sapiens, UniProt P00533); test: Enzyme and cell-based assay, ATP + biotinyl peptide (0.1 μM)
Rat AMPA receptors = test: AMPA-evoked currents, Xenopus laevis oocytes injected with rat cortex poly(A+) mRNA (two-electrode voltage clamp); assay type: cell-based; settings: geometric mean
Protocol: Compounds were tested by bath application.

male OFA rats = test: Novel object recognition test in rats; assay type: in vivo, rat; settings: 3 administrations
Protocol: Novel object recognition and T-maze studies were conducted respectively in male OFA rats (150–175 g, Charles River, Saint-Germain-Nuelles, France) and male C57Bl/6 mice (5.5–6.5 month-old, Charles River, Saint-Germain-Nuelles, France). Animals were housed in collective cages with continuous access to tap water and food on a 12 h light-dark cycle, in a temperature-controlled (21 ± 1°C) and ventilated room. On completion of studies subjects were euthanized by either CO2 inhalation or intraperitoneal (i.p.) lethal pentobarbital injection. The novel object recognition test was used as the primary in vivo screening assay to identify AMPA-PAMs. The T-maze task was performed using a modified continuous performance procedure previously described in mice.
S 47445 was suspended either in distilled water with Tween80® 2% for oral administration or saline with Tween80® 2% for i.p. administration. Tween80® was obtained from Sigma-Aldrich, Lyon, France. S 47445 was synthetized by Servier, Suresnes, France. […]
The novel object recognition paradigm was developed by Ennaceur and Delacour, 1988 and aimed to evaluate potential procognitive effects of drugs on a form of recognition (episodic-like) memory in the rat. […] Consequently, recognition is measured by the time spent by rats in exploring two different objects, one being familiar and the other being new.
Animals were submitted to three phases of the test. […] Each rat was placed in the arena, and the time spent actively exploring the objects was recorded. […] After 24 h, during the third phase (session of recognition), each rat was again placed in the apparatus for 3 min in the presence of one of the familiar (Fam) objects and a new (New) object, and the time spent exploring both objects was again recorded. […] The difference in duration of exploration of the two objects (New-Fam) and the sum of duration of exploration on session of recognition were determined. Statistical analysis was performed on the discrimination index calculated as (New-Fam)/(Fam+New) using a one-way ANOVA using SAS v9.2 software (SAS Institute, Cary, NC). […]

Kainate = test: Binding assay, [3H]kainic acid, rat cerebral cortex membranes
male NMRI mice = test: Spontaneous locomotor activity in mice; assay type: in vivo, mouse; settings: 10, 30 and 100 mg/kg p.o. acute
Protocol: Locomotor activity was measured in male NMRI mice (18–20 g, Janvier Labs, Le Genest Saint Isle, France) placed in open-fields equipped with infrared sensors (Imetronic, Pessac, France). Two parameters were automatically computed: the global locomotor activity and the number of rearing by counting the number of times the animal cut photocells. Mice were placed in the apparatus 30 min after oral administration of S 47445 (10, 30 and 100 mg/kg) or vehicle. Spontaneous locomotor activity was recorded for 60 min divided in 6 x 10-min periods. The global locomotor activity was analysed using two way ANOVA (dose x time) followed by Dunnett’s post hoc test. Analyses were performed using SAS v9.2 software (SAS Institute, Cary, NC).

[1] = tested on: Ca2+ channel (L, diltiazem site) (benzothiazepines); test: Binding assay, [3H]diltiazem
[2] = molecular target: AMPA/Kainate chimerae GluA1(K2S1) (Homo sapiens, UniProt P42261, A392I/A426D/A443L/A444R/A447S/A473Q/A536S/C542Y/D385S/D386Q/D417E/D470A/D533N/DEL395-402/E430Y/E441D/E457R/E501K/E538D/F388G/F429L/F545L/G479R/G484H/H449I/I446L/I458L/I518Y/I548L/INS382DPASGLNM/INS391N/INS555VIA/K448T/K472G/K519R/K523G/K525N/L422F/L456I/L497Y/M421L/M517L/N383T/N425S/N427K/P469D/Q405S/Q428P/Q522N/R455E/R467Q/R485K/S453T/S460E/S511T/S524T/T408S/T471N/T494A/V389K/V404L/V440I/V450L/V482I/V488L/V544L/V552C/Y381T/Y409L/Y435F/Y452F/Y483D/Y537P); test: Glutamate-evoked current in oocytes expressing AMPA/Kainate chimera; settings: n = 5
SK^+Ca channel = test: Binding assay, [125I]apamin
[3] = tested on: Ca2+ channel (L, verapamil site) phenylalkylamines); test: Binding assay, [3H](-)D 888

Sequence of EGFR kinase (h) (P00533 25-1210): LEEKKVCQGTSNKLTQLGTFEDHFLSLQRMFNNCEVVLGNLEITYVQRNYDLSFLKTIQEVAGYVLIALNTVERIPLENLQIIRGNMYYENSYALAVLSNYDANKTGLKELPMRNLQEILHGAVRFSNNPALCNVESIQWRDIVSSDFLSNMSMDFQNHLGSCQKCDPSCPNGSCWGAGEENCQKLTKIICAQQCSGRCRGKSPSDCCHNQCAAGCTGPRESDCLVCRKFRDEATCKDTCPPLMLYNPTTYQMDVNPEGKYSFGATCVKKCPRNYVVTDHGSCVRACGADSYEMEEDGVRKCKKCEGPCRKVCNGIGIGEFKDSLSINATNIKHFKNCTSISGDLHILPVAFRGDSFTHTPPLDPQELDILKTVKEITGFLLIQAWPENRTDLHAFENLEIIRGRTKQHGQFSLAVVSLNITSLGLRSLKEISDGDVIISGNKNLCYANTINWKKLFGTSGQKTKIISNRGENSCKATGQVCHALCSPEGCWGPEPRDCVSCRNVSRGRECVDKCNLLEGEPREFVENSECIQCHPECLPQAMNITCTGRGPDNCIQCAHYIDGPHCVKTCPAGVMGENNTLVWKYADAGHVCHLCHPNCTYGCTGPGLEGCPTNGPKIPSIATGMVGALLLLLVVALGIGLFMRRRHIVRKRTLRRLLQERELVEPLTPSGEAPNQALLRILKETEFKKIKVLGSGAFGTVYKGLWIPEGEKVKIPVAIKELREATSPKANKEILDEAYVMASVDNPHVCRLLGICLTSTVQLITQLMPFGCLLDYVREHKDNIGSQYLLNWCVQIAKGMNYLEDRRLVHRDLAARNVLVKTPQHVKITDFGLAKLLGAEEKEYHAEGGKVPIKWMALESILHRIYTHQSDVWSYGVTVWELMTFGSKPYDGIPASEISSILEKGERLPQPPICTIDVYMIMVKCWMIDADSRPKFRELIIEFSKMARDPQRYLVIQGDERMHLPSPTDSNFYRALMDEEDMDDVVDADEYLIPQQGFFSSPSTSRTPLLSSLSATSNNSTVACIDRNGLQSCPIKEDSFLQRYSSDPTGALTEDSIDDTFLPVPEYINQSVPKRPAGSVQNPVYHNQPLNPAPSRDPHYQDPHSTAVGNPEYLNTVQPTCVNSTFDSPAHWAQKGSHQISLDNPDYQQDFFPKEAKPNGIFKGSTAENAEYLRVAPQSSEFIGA
Sequence of 5-HT1B (P28564 whole entry): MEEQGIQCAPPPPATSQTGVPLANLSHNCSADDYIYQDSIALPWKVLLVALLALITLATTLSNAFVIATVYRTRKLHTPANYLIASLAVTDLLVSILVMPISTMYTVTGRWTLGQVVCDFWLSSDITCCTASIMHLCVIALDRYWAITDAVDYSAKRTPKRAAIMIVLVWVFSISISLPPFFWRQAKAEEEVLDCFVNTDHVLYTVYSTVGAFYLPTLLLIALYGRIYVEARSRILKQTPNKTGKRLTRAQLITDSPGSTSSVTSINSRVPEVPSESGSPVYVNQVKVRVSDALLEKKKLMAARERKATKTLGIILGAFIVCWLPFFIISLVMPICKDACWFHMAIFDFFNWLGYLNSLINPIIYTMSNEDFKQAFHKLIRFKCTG
Sequence of AMPA/Kainate chimerae GluA1(K2S1) (P42261 with tags, fused parts or gaps with the stated changes): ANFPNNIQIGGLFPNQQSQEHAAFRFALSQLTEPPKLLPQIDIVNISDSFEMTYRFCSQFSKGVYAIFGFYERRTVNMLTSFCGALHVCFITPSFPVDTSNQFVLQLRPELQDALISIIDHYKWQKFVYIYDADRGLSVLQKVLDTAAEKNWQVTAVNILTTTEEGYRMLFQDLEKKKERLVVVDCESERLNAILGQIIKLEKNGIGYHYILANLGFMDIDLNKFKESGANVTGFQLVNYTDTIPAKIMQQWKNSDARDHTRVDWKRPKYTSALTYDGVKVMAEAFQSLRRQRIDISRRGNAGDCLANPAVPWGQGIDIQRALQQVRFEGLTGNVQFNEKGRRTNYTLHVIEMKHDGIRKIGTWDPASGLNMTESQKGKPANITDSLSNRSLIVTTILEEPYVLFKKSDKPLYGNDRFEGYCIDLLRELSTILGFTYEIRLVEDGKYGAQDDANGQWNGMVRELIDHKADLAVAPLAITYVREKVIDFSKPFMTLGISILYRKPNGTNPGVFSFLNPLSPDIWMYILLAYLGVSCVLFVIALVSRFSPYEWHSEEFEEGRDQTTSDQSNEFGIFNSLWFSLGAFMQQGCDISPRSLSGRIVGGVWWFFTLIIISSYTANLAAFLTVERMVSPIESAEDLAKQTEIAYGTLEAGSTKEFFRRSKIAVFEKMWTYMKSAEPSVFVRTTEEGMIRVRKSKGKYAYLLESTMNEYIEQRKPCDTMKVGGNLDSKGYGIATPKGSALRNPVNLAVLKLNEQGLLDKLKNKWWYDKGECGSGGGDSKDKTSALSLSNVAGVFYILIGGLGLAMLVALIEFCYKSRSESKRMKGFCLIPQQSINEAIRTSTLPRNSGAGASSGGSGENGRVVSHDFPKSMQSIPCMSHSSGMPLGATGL

Q: What does the source list for `O=C1c2cc3nnn(CCc4cccc(F)c4)c(=O)c3cc2OCN1C1CC1` [S 47445, 8-cyclopropyl-3-[2-(3-fluorophenyl)ethyl]-7,8-dihydro-3H-[1,3]oxazino[6,5-g][1,2,3]benzotriazine-4,9-dione]?
A: % Inhibition of control specific binding (Androgen (h) (AR); S 47445 1.0E-05 M): -5%; % Inhibition of control specific binding (Androgen (h) (AR); S 47445 1.0E-07 M): 0%; % Inhibition of control specific binding (K^+V channel; S 47445 1.0E-05 M): -2%; % Inhibition of control specific binding (K^+V channel; S 47445 1.0E-07 M): -6%; inhibition at 100 nM (5-HT1B): -7%; inhibition at 10 µM (5-HT1B): -3%; % Inhibition of control specific binding (EGFR kinase (h); S 47445 1.0E-05 M): 0%; % Inhibition of control specific binding (EGFR kinase (h); S 47445 1.0E-07 M): -8%; EC2X (Rat AMPA receptors; concentration giving a two-fold increase in current amplitude): 1.53 µM; EC50 (Rat AMPA receptors; potentiation of 10 μM AMPA-evoked current): 6.5 µM and 6.54 µM; Discrimination index versus vehicle (male OFA rats; 0.3 mg/kg p.o., p ≤ 0.01): significantly increased the discrimination index; Discrimination index versus vehicle (male OFA rats; 1 mg/kg p.o., tendency of increase): did not reach statistical significance; Discrimination index versus vehicle (male OFA rats; 3 mg/kg p.o., p ≤ 0.05): significantly increased the discrimination index; % Inhibition of control specific binding (Kainate; S 47445 1.0E-05 M): 25%; % Inhibition of control specific binding (Kainate; S 47445 1.0E-07 M): 7%; Ki (Kainate; read-out: Ki, glutamate binding site, n = 2): > 10 µM; Global spontaneous locomotor activity (male NMRI mice): did not significantly modify; Number of rearing (male NMRI mice): did not influence; % Inhibition of control specific binding ([1]; S 47445 1.0E-05 M): 25%; % Inhibition of control specific binding ([1]; S 47445 1.0E-07 M): -6%; Potentiating effect on glutamate-evoked current [2]: lost; % Inhibition of control specific binding (SK^+Ca channel; S 47445 1.0E-05 M): -10%; % Inhibition of control specific binding (SK^+Ca channel; S 47445 1.0E-07 M): 13%; % Inhibition of control specific binding ([3]; S 47445 1.0E-05 M): -1%; % Inhibition of control specific binding ([3]; S 47445 1.0E-07 M): 4%
